According to ChEMBL document CHEMBL1201862, “PubChem BioAssay data set” (2004):
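Growth conditions: 96-well plates. Treatment: test compound, 48 hours, 5 concentrations. Analysis: linear interpolation between bracketing concentrations; unreached endpoints set to highest concentration. Abbreviation: GI50, concentration required for 50% inhibition of growth.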 The source made the active and inactive calls. Cut-off read from the data, not from the text of the source: active = GI50 up to about 1.1 µM and inactive = higher.

Assays:
Test in all cases: NCI tumour cell line growth inhibition, 48 h
[1] = tested on: HOP-92
[2] = tested on: DMS-114
[3] = tested on: NCI-H226
[4] = tested on: HL-60
[5] = tested on: KM-20L2
[6] = tested on: CCRF-CEM
[7] = tested on: A498
[8] = tested on: HOP-62
[9] = tested on: KM12
[10] = tested on: UO-31
[11] = tested on: DMS-273
[12] = tested on: M14
[13] = tested on: OVCAR-8
[14] = tested on: UACC-257
[15] = tested on: SF-295
[16] = tested on: SF-268
[17] = tested on: OVCAR-5
[18] = tested on: M19-MEL
[19] = tested on: SNB-19
[20] = tested on: TK-10
[21] = tested on: SR
[22] = tested on: IGROV-1
[23] = tested on: NCI-H460
[24] = tested on: UACC-62
[25] = tested on: ACHN
[26] = tested on: SK-OV-3
[27] = tested on: SNB-78
[28] = tested on: A549
[29] = tested on: NCI-H23
[30] = tested on: SK-MEL-28
[31] = tested on: HCT-116
[32] = tested on: EKVX
[33] = tested on: U-251
[34] = tested on: RXF 393
[35] = tested on: NCI-H522
[36] = tested on: HT-29
[37] = tested on: MOLT-4
[38] = tested on: DU-145
[39] = tested on: SNB-75
[40] = tested on: 786-0
[41] = tested on: K562
[42] = tested on: OVCAR-3
[43] = tested on: MDA-MB-231
[44] = tested on: SK-MEL-5
[45] = tested on: T47D
[46] = tested on: BT-549
[47] = tested on: COLO 205
[48] = tested on: CAKI-1
[49] = tested on: MDA-N
[50] = tested on: SF-539
[51] = tested on: MDA-MB-435
[52] = tested on: PC-3
[53] = tested on: SN12C
[54] = tested on: LOX IMVI
[55] = tested on: MCF7
[56] = tested on: OVCAR-4
[57] = tested on: Malme-3M
[58] = tested on: SK-MEL-2
[59] = tested on: HCT-15
[60] = tested on: RPMI-8226
[61] = tested on: NCI/ADR-RES
[62] = tested on: HCC 2998
[63] = tested on: SW-620
[64] = tested on: Hs-578T

NC(CCCC(N)P(=O)(O)O)C(=O)O (stereo unspecified)
GI50 [1]: > 100 µM (inactive)
GI50 [2]: > 100 µM (inactive)
GI50 [3]: > 100 µM (inactive)
GI50 [4]: > 100 µM (inactive)
GI50 [5]: > 100 µM (inactive)
GI50 [6]: > 100 µM (inactive)
GI50 [7]: > 100 µM (inactive)
GI50 [8]: > 100 µM (inactive)
GI50 [9]: > 100 µM (inactive)
GI50 [10]: > 100 µM (inactive)
GI50 [11]: > 100 µM (inactive)
GI50 [12]: > 100 µM (inactive)
GI50 [13]: > 100 µM (inactive)
GI50 [14]: > 100 µM (inactive)
GI50 [15]: > 100 µM (inactive)
GI50 [16]: > 100 µM (inactive)
GI50 [17]: > 100 µM (inactive)
GI50 [18]: > 100 µM (inactive)
GI50 [19]: > 100 µM (inactive)
GI50 [20]: > 100 µM (inactive)
GI50 [21]: > 100 µM (inactive)
GI50 [22]: > 100 µM (inactive)
GI50 [23]: > 100 µM (inactive)
GI50 [24]: > 100 µM (inactive)
GI50 [25]: > 100 µM (inactive)
GI50 [26]: > 100 µM (inactive)
GI50 [27]: > 100 µM (inactive)
GI50 [28]: > 10 µM (inactive)
GI50 [29]: > 100 µM (inactive)
GI50 [30]: > 100 µM (inactive)
GI50 [31]: > 100 µM (inactive)
GI50 [32]: > 100 µM (inactive)
GI50 [33]: > 100 µM (inactive)
GI50 [34]: > 100 µM (inactive)
GI50 [35]: > 100 µM (inactive)
GI50 [36]: > 100 µM (inactive)
GI50 [37]: > 100 µM (inactive)

OC(c1cc(C23CC4CC(CC(C4)C2)C3)nc2c(Cl)cc(Cl)cc12)C1CCCCN1 (stereo unspecified)
GI50 [1]: 2.05 µM (inactive)
GI50 [38]: 1.77 µM (inactive)
GI50 [39]: 1.73 µM (inactive)
GI50 [3]: 2.07 µM (inactive)
GI50 [4]: 2.11 µM (inactive)
GI50 [40]: 1.57 µM (inactive)
GI50 [6]: 0.743 µM (active)
GI50 [7]: 1.7 µM (inactive)
GI50 [41]: 1.51 µM (inactive)
GI50 [8]: 1.53 µM (inactive)
GI50 [42]: 1.78 µM (inactive)
GI50 [43]: 1.82 µM (inactive)
GI50 [9]: 1.67 µM (inactive)
GI50 [10]: 0.204 µM (active)
GI50 [12]: 1.8 µM (inactive)
GI50 [13]: 2.36 µM (inactive)
GI50 [44]: 2.63 µM (inactive)
GI50 [45]: 1.79 µM (inactive)
GI50 [14]: 1.97 µM (inactive)
GI50 [15]: 1.67 µM (inactive)
GI50 [16]: 1.79 µM (inactive)
GI50 [46]: 2.02 µM (inactive)
GI50 [47]: 1.71 µM (inactive)
GI50 [17]: 1.79 µM (inactive)
GI50 [48]: 1.69 µM (inactive)
GI50 [19]: 1.6 µM (inactive)
GI50 [20]: 1.84 µM (inactive)
GI50 [21]: 0.705 µM (active)
GI50 [49]: 1.68 µM (inactive)
GI50 [50]: 2.13 µM (inactive)
GI50 [51]: 1.67 µM (inactive)
GI50 [52]: 1.62 µM (inactive)
GI50 [53]: 1.62 µM (inactive)
GI50 [54]: 1.49 µM (inactive)
GI50 [22]: 1.77 µM (inactive)
GI50 [23]: 1.61 µM (inactive)
GI50 [55]: 1.6 µM (inactive)
GI50 [24]: 1.76 µM (inactive)
GI50 [25]: 1.69 µM (inactive)
GI50 [26]: 1.77 µM (inactive)
GI50 [28]: 1.82 µM (inactive)
GI50 [29]: 1.85 µM (inactive)
GI50 [30]: 2.06 µM (inactive)
GI50 [31]: 1.36 µM (inactive)
GI50 [32]: 1.73 µM (inactive)
GI50 [56]: 1.69 µM (inactive)
GI50 [57]: 1.81 µM (inactive)
GI50 [58]: 1.87 µM (inactive)
GI50 [59]: 1.83 µM
GI50 [33]: 1.51 µM (inactive)
GI50 [34]: 1.6 µM (inactive)
GI50 [60]: 1.77 µM (inactive)
GI50 [35]: 1.57 µM (inactive)
GI50 [61]: 2.06 µM (inactive)
GI50 [62]: 0.344 µM (active)
GI50 [63]: 1.57 µM (inactive)
GI50 [36]: 1.58 µM (inactive)
GI50 [37]: 0.608 µM (active)
GI50 [64]: 2.03 µM (inactive)
